This note sets out measurements from article PMC3691235, “Discovery of a Novel Dual Fungal CYP51/Human 5-Lipoxygenase Inhibitor: Implications for Anti-Fungal Therapy” (PLoS ONE, 2013).

The structures appear in SMILES notation. Where only a bound is given, the exact number is not on record here.

Experiment [1] has as its target T1, Human leukocyte 5-lipoxygenase (Homo sapiens, UniProt P09917).
T1 construct: made in house
T1 sequence (P09917 1-674): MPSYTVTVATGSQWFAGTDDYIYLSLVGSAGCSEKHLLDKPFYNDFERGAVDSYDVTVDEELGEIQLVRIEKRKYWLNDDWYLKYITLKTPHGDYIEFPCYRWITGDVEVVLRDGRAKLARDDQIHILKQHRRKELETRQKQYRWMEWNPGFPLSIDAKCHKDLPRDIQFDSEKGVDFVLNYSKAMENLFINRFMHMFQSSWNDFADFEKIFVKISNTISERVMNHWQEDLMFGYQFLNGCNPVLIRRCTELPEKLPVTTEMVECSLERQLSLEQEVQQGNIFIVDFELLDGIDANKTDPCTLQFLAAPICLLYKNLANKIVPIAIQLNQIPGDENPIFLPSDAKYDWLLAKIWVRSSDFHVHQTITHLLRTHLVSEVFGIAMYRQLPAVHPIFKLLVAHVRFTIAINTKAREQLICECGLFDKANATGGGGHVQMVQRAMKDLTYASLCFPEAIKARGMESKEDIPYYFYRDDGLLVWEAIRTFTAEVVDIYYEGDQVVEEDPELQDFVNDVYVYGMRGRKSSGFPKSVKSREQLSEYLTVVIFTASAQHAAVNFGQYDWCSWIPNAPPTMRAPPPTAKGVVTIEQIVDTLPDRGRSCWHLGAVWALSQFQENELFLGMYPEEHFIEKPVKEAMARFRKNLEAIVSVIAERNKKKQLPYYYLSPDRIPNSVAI
Description: Lipoxygenase UV-based inhibitor assay, 5-LOX. It is filed as biochemical. To be noted: for IC50: UV-based assay, 10 µM AA, pH 7.3, crude enzyme, error = SD, read-out: 5-LOX IC50. Here is the method:
(§1) Human leukocyte 5-lipoxygenase was expressed as a non-tagged protein and used as a crude ammonium sulfate protein fraction, as published previously.
(§2) Inhibitor potencies were evaluated through use of the standard UV-based inhibitor assay. The initial rates were determined by following the formation of the conjugated diene product at 234 nm (ε = 25,000 M^−1 cm^−1) with a Perkin-Elmer Lambda 40 UV/Vis spectrophotometer at one substrate concentration and varying inhibitor concentrations. All reactions were 2 mL in volume and constantly stirred using a magnetic stir bar at room temperature (23°C), with the enzyme specific buffer conditions outlined in Table 1. The substrate used for the various isozymes was arachidonic acid (AA) for 5-LOX, 12-LOX, and 15-LOX-2 and linoleic acid (LA) for 15-LOX-1, where concentrations were quantitatively determined by allowing the enzymatic reaction to go to completion. IC50 values were obtained by determining the initial rate at various inhibitor concentrations and plotting them against inhibitor concentration, followed by a hyperbolic saturation curve fit. The data used for the saturation curves were performed in duplicate or triplicate, depending on the quality of the data. […] Inhibitors were stored at −20°C in DMSO. […] The solvent isotope effect of the inhibitor IC50 was investigated utilizing the same conditions and methods as stated above. The pH of the buffered D2O was determined as reported previously.

For another experiment, the target named is T2, 5-LOX (Homo sapiens, UniProt P09917).
T2 construct: made in house
T2 sequence (P09917 1-674): T1 sequence (P09917 1-674)
Kind of experiment: Pseudoperoxidase activity assay. Type of experiment: biochemical. To be noted: 10 µM inhibitor, 10 µM 13-HPODE, positive = loss of greater than 40% of product absorption at 234 nm. On the procedure:
The reductive properties of the inhibitors were determined by monitoring the pseudoperoxidase activity of lipoxygenase in the presence of the inhibitor and 13-(S)-hydroperoxyoctadecadienoic acid (13-HPODE). Activity is monitored by direct measurement of the product degradation following the decrease of absorbance at 234 nm using a Perkin-Elmer Lambda 40 UV/Vis spectrometer (50 mM Sodium Phosphate (pH 7.4), 0.3 mM CaCl2, 0.1 mM EDTA, 0.01% Triton X100, 10 µM 13-HPODE). All reactions were performed in 2 mL of buffer and constantly stirred with a rotating stir bar (23°C). Reaction was initiated by addition of 10 µM inhibitor (a 1 to 1 ratio to 13-HPODE), and a positive result for activity reflected a loss of greater than 40% of product absorption at 234 nm.

In experiment [2] the target is T3, human platelet 12-lipoxygenase (12-LOX) (Homo sapiens, UniProt P18054).
T3 construct: His6 (N); made in house
T3 sequence (P18054 1-663): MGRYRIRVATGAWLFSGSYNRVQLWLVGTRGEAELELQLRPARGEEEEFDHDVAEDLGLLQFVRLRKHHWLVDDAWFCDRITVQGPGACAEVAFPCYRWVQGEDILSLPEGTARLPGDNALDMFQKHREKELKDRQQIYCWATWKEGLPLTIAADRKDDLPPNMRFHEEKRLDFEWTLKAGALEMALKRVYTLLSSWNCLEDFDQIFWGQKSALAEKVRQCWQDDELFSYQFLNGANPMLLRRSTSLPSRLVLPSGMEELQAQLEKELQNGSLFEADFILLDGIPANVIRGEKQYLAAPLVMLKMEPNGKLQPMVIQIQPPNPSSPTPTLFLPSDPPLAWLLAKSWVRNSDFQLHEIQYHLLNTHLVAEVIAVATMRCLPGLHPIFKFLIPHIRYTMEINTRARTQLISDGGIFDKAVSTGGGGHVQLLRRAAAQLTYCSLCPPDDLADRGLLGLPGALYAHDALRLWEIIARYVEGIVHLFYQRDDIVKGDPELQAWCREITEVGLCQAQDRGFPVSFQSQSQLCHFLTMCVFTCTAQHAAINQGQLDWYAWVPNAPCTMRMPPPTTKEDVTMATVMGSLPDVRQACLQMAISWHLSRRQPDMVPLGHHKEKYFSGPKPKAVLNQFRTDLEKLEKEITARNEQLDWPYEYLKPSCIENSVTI
Description: Lipoxygenase UV-based inhibitor assay, 12-LOX. Type of experiment: biochemical. To be noted: 10 µM AA, pH 8.0. On the procedure: as §1, §2

The target in experiment [3] is T4, Human reticulocyte 15-lipoxygenase-1 (15-LOX-1) (Homo sapiens, UniProt P16050).
T4 construct: His6 (N); made in house
T4 sequence (P16050 1-662): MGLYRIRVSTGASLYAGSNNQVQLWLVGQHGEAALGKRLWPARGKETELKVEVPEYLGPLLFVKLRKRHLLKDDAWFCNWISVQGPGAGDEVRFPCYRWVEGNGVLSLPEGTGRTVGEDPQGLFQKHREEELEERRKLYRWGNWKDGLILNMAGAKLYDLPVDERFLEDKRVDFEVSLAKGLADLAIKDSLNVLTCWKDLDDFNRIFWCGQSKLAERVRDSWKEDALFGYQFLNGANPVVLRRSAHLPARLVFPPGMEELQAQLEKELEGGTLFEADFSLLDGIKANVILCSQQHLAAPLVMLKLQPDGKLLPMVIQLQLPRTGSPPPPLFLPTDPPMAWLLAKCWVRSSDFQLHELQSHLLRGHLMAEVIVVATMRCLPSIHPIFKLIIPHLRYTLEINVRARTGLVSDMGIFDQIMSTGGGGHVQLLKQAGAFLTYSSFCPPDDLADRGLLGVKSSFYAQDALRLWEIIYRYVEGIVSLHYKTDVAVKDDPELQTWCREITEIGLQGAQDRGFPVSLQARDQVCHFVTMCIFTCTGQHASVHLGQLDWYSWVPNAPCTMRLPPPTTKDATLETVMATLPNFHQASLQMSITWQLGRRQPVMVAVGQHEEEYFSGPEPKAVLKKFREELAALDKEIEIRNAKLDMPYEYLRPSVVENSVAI
Kind of experiment: Lipoxygenase UV-based inhibitor assay, 15-LOX-1. It is filed as biochemical. To be noted: 10 µM LA, pH 7.5. Here is the method:
as §1, §2

The target in experiment [4] is T5, human prostate epithelial 15-lipoxygenase-2 (15-LOX-2) (Homo sapiens, UniProt O15296).
T5 construct: His6 (N); made in house
T5 sequence (O15296 1-676): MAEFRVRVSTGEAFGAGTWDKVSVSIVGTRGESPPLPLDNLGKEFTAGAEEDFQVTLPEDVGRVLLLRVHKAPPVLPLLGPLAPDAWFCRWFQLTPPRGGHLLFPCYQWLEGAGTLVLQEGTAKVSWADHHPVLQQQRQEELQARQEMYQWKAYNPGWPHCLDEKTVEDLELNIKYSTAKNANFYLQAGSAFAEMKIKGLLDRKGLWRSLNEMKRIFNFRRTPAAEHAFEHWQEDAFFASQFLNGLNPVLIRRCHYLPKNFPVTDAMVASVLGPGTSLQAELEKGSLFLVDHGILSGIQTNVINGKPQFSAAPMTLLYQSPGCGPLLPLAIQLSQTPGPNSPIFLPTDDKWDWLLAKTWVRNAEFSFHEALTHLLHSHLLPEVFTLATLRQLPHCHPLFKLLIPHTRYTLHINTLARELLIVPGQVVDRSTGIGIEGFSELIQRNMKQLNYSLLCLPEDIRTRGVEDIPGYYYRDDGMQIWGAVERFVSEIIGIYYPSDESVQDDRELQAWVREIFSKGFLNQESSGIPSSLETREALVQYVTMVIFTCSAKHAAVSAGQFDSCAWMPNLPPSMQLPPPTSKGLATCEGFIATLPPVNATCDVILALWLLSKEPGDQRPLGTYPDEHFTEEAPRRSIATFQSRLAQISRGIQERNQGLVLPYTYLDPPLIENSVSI
Description: Lipoxygenase UV-based inhibitor assay, 15-LOX-2. Type of experiment: biochemical. To be noted: 30 µM AA, pH 7.5. On the procedure: as §1, §2

Experiment [5] concerns LTB4 synthesis in whole human blood. Description: Human blood LTB4 inhibition assay. It is filed as cell-based. To be noted: Homo sapiens, compounds at 10 µM, calcium ionophore stimulated, ELISA; error in parentheses. Here is the method:
Whole human blood was obtained from healthy volunteers from within the Student Health Center. These studies were approved by the UCSC Institutional Review Board (IRB) and informed consent was obtained from all donors before blood draw. The whole blood was dispensed in 150 µL samples followed by addition of inhibitor or control (vehicle, DMSO), and incubated for 15 min at 37°C. The mixture was then stimulated by introduction of the calcium ionophore, […], (freshly diluted from a 50 mM DMSO stock to 1.5 mM in Hanks balanced salt solution), and incubated for 30 min at 37°C. Samples were then centrifuged at 1,500 rpm (300 g) for 10 min at 4°C and the supernatant diluted between 20 and 50-fold (batch dependent) for LTB4 detection, using an ELISA detection kit (Cayman Chemicals Inc.).

What is called IC50 is the point on the concentration scale where inhibition reaches its midpoint. Regarding `CC(C)(C)OC(=O)N1CCN(c2ccc(OCc3ccc(-c4ccc(C#N)cc4)o3)cc2)CC1` [Compound 3], in experiment [1], the “5-LOX inhibition, in words” value was “complete loss of inhibition” and the IC50 was more than 150000 nM. Moreover, the “Reductive activity (pseudoperoxidase activity)” value (shortened to “Reductive activity”) at 5-LOX is “No”.
`CN(Cc1ccc(-c2ccc(C#N)cc2)o1)c1ccc(N2CCN(C(=O)OC(C)(C)C)CC2)cc1` [Compound 7]: the IC50 in experiment [1] came out at 2700 nM. The “Reductive activity” value on 5-LOX is on record as “Yes”.
With `CC(C)(C)OC(=O)N1CCN(c2cnc(NCc3ccc(-c4ccc(C#N)cc4)o3)nc2)CC1` [Compound 5], in experiment [1], the “5-LOX inhibition, in words” value is given as “complete loss of inhibition” and the IC50 was more than 150000 nM. On 5-LOX, the “Reductive activity” value was “No”.
Regarding `CC(=O)N1CCN(c2ccc(NCc3ccc(C)cc3)cc2)CC1` [Compound 11], the IC50 in experiment [1] was found to be 1100 nM.
The same measure, in the same setting: for `CC(C)(C)OC(=O)N1CCN(c2ccc(NCc3cnc(-c4ccc(C#N)cc4)o3)cc2)CC1` [Compound 8] the value was 100 nM.
As for `CC(C)(C)OC(=O)N1CCN(c2ncc(NCc3ccc(-c4ccc(C#N)cc4)o3)cn2)CC1` [Compound 4], in experiment [1], the “5-LOX inhibition, in words” value is recorded as “complete loss of inhibition” and the IC50 is more than 150000 nM. On 5-LOX, the “Reductive activity” value was “No”.
Turning to `CC(=O)N1CCN(c2ccc(NCc3ccc(-c4ccc(Br)cc4)o3)cc2)CC1` [Compound 12], the IC50 in experiment [1] worked out at 2600 nM.
The same measure, in the same setting: the same measure for `CC(C)(C)OC(=O)N1CCN(c2ccc(NCc3ncc(-c4ccc(C#N)cc4)o3)cc2)CC1` [Compound 9]: 1500 nM.
Regarding `CC(c1cc2ccccc2s1)N(O)C(N)=O` (centres unmarked) [zileuton, reference compound], the IC50 in experiment [2] was more than 150000 nM; in experiment [3] it was more than 50000 nM. For the same compound, the figures for the “Reductive activity” value on 5-LOX and on 5-LOX (listed as Zilueton) were “reductive” and “Yes”, respectively.
For `CC(C)(C)OC(=O)N1CCC(c2ccc(NCc3ccc(-c4ccc(C#N)cc4)o3)cc2)CC1` [Compound 2], in experiment [1], the “5-LOX inhibition, in words” value is on record as “complete loss of inhibition” and the IC50 was more than 150000 nM. The “Reductive activity” value on 5-LOX is reported as “No”.
As a reminder, the inhibition is how much of the control response was suppressed. Regarding `Cc1ccc(CNc2ccc(N3CCCCC3)cc2)cc1` [Compound 15], the IC50 in experiment [1] is 600 nM; in experiment [2] it was more than 50000 nM; in experiment [3], more than 150000 nM; in experiment [4], more than 50000 nM. For the same compound, the inhibition at 10 µM in experiment [5] was less than 10%.
Take `CC(C)(C)OC(=O)N1CCN(c2ccc(NCc3nnc(-c4ccc(C#N)cc4)o3)cc2)CC1` [Compound 10]: the IC50 in experiment [1] was more than 150000 nM. For the same compound, the “decrease in 5-LOX potency” value in experiment [1] (relative to the other analogues of Figure 3) was “greater than 10 fold”.
